Drawing on PubChem BioAssay (NCI), this text covers TGI for 35 molecules.

SMILES strings stand for the structures.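 These data come from cells grown in 96-well plates and exposed to compound for 48 hours at five concentrations. The concentration for full growth arrest is given as TGI.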

In one experiment the test system is DMS 273 small cell lung. The experiment in a line: NCI tumour cell line growth inhibition, 48 h.
On to `CCOC(=O)C1=C(NC)OCC1=O`, for which the TGI was over 100 µM.

As to `CCOC(=O)C1(C)CCC(C(C(=O)O)C(=O)O)CC1=O` (stereo not drawn), the TGI was over 100 µM.

`COC(=O)C1=C(C(=O)OC)C2(c3ccccc3)OC1(c1ccccc1)c1cc3ccccc3cc12`: the TGI was found to be 3.7 µM.

The molecule `CC1NOC(=O)C1N=Nc1ccc(Cl)cc1Cl` (stereo not drawn) displayed a TGI of 56.8 µM.

The molecule `O=C1NC(=O)C2C(=O)NC(=O)C1C2Cc1ccco1` (stereo not drawn) yielded a TGI of over 100 µM.

Molecule `CCOC(=O)/C(=C/c1ccccn1)C(=O)c1ccccc1` came in with a TGI of 27.3 µM.

`O=C(c1ccccc1)[C@H]1Nc2ccc(Cl)cc2[C@H]2CCC[C@@H]12`: the TGI was over 100 µM.

`COc1ccc2nc(NC(=O)C(=O)CC(=O)c3ccc([N+](=O)[O-])cc3)sc2c1` gave a TGI of over 100 µM.

`CC(=O)Nc1ccc(C2CC(c3ccc([N+](=O)[O-])cc3)=Nc3ccccc3S2=O)cc1` (stereo not drawn) gave a TGI of 35.8 µM.

Molecule `COc1cc(/C=C2\NC(=O)C(Cc3cc(OC)c(OC)c(C)c3OC)N(C(C)=O)C2=O)c(OC)c(C)c1OC` (stereo not drawn) displayed a TGI of over 100 µM.

`O=NN(CCCl)C(=O)NC1CCC(CC(=O)O)CC1` (stereo not drawn) displayed a TGI of over 100 µM.

In turn, `C[C@H](C(=O)O)C(=O)NC(=O)N(Cc1ccccc1)N=O` had a TGI of over 100 µM.

The molecule `NNC(=O)C(=O)NN=C(C(Cl)(Cl)CO)C(Cl)(Cl)CO` displayed a TGI of over 100 µM.

The molecule `COc1ccc(/C=C2\C(=O)N(NC(C)=O)c3ccccc32)cc1` gave a TGI of over 100 µM.

Turning to `NC1=NC(Cn2nc(-c3ccccc3)c3ccccc3c2=O)=NNC(=O)N1`, the TGI is over 100 µM.

Molecule `O=C(CCCC(=O)Nc1ccc(Cl)cc1Cl)CC(=O)c1ccc2ccccc2c1` returned a TGI of over 100 µM.

Consider `O=C(NCCc1ccccc1)C1C(=O)C(=O)N(CCc2ccccc2)C1=O` (stereo not drawn), for which the TGI is over 100 µM.

`OC(c1ccccc1Br)(c1ccccc1Br)C(F)(F)F` had a TGI of 40.7 µM.

Turning to `NC(N)=NCCCC(NCc1c2ccccc2nc2ccccc12)C(=O)O` (stereo not drawn), the TGI was over 100 µM.

In the case of `CC(=O)OC1COC(N2CCc3cc([N+](=O)[O-])ccc32)C(OC(C)=O)C1OC(C)=O` (stereo not drawn), the TGI was over 100 µM.

`CCOC(=O)C1S(=O)(=O)OCCOS1(=O)=O`: the TGI was over 100 µM.

Molecule `CC12OC(=O)C(C#N)C1(C)C1C(=O)CCCC12` (stereo not drawn) registered a TGI of over 100 µM.

Regarding `Cc1nc2ccccc2c(=O)n1/N=C(\N=Nc1ccccc1Cl)c1ccccc1Cl`, the TGI was over 100 µM.

`CCc1cccc(CC)c1NC(=O)/C(Cl)=C(/Cl)C(=O)O` registered a TGI of over 85.8 µM.

In turn, `O=[N+]([O-])c1ccc(-c2ccc(C3=Nn4c(CNc5ccccc5Cl)nnc4SC3)o2)cc1` had a TGI of over 100 µM.

`CCCC(=O)CC(C)C(=O)C(=O)NC12CC3CC(CC(C3)C1)C2` (stereo not drawn): the TGI is over 100 µM.

On to `CC(=O)OCC(=O)[C@@]1(O)CC[C@H]2[C@@H]3C[C@H](C)C4=CC(=O)C=C[C@]4(C)[C@@]3(F)[C@@H](O)C[C@@]21C`, for which the TGI is over 100 µM.

The molecule `Nc1nc(=S)c2c(ncn2CCO)[nH]1` had a TGI of over 100 µM.

Turning to `c1ccc(C(c2ccccc2)c2ccccn2)cc1`, the TGI is over 100 µM.

`Cn1c(=O)c2nc3sc4c(n3c2n(C)c1=O)C(=O)c1ccccc1C4=O` yielded a TGI of over 100 µM.

Molecule `N#CC1CC(c2ccccc2)Nc2cc(Cl)ccc2N1` (stereo not drawn) displayed a TGI of over 100 µM.

Another experiment deals with HOP-18 NSCLC. In words: NCI tumour cell line growth inhibition, 48 h.
On to `CCOC(=O)C1(C)CCC(C(C(=O)O)C(=O)O)CC1=O` (stereo not drawn), for which the TGI is over 100 µM.

`COC(=O)C1=C(C(=O)OC)C2(c3ccccc3)OC1(c1ccccc1)c1cc3ccccc3cc12` displayed a TGI of 2.45 µM.

The molecule `CC1NOC(=O)C1N=Nc1ccc(Cl)cc1Cl` (stereo not drawn) returned a TGI of 50.4 µM.

In turn, `CCOC(=O)/C(=C/c1ccccn1)C(=O)c1ccccc1` gave a TGI of 32.7 µM.

On to `O=C(c1ccccc1)[C@H]1Nc2ccc(Cl)cc2[C@H]2CCC[C@@H]12`, for which the TGI worked out at 59.6 µM.

`CC(=O)Nc1ccc(C2CC(c3ccc([N+](=O)[O-])cc3)=Nc3ccccc3S2=O)cc1` (stereo not drawn): the TGI was over 100 µM.

Consider `COc1cc(/C=C2\NC(=O)C(Cc3cc(OC)c(OC)c(C)c3OC)N(C(C)=O)C2=O)c(OC)c(C)c1OC` (stereo not drawn), for which the TGI is 99.6 µM.

Molecule `O=NN(CCCl)C(=O)NC1CCC(CC(=O)O)CC1` (stereo not drawn) gave a TGI of over 100 µM.

`C[C@H](C(=O)O)C(=O)NC(=O)N(Cc1ccccc1)N=O`: the TGI stood at 0.0783 µM.

As for `NNC(=O)C(=O)NN=C(C(Cl)(Cl)CO)C(Cl)(Cl)CO`, the TGI is over 100 µM.

Regarding `COc1ccc(/C=C2\C(=O)N(NC(C)=O)c3ccccc32)cc1`, the TGI is over 100 µM.

With `O=C1N[C@@H]2CCCC[C@@H]2C12CCCCC2`, the TGI was over 100 µM.

`COc1ccc2ccccc2c1C1=NC(C)(C)CO1`: the TGI is over 100 µM.

As to `NC1=NC(Cn2nc(-c3ccccc3)c3ccccc3c2=O)=NNC(=O)N1`, the TGI is over 100 µM.

As for `O=C(CCCC(=O)Nc1ccc(Cl)cc1Cl)CC(=O)c1ccc2ccccc2c1`, the TGI is over 100 µM.

Molecule `OC(c1ccccc1Br)(c1ccccc1Br)C(F)(F)F` yielded a TGI of over 100 µM.

Molecule `CC12OC(=O)C(C#N)C1(C)C1C(=O)CCCC12` (stereo not drawn) returned a TGI of over 100 µM.

`Cc1nc2ccccc2c(=O)n1/N=C(\N=Nc1ccccc1Cl)c1ccccc1Cl` gave a TGI of over 100 µM.

Regarding `CCc1cccc(CC)c1NC(=O)/C(Cl)=C(/Cl)C(=O)O`, the TGI was determined as 49.5 µM.

`CCCC(=O)CC(C)C(=O)C(=O)NC12CC3CC(CC(C3)C1)C2` (stereo not drawn) registered a TGI of over 100 µM.

For `Nc1nc(=S)c2c(ncn2CCO)[nH]1`, the TGI was over 100 µM.

For the molecule `CC(C)Cc1ccc(C(C)/C=C2\CCC(CN(C)C)C2=O)cc1` (stereo not drawn), the TGI is 32.2 µM.

`COc1cc(/C=C/c2csnn2)cc(OC)c1OC` registered a TGI of over 100 µM.

On to `c1ccc(C(c2ccccc2)c2ccccn2)cc1`, for which the TGI was over 100 µM.

For `Cn1c(=O)c2nc3sc4c(n3c2n(C)c1=O)C(=O)c1ccccc1C4=O`, the TGI is over 100 µM.

`N#CC1CC(c2ccccc2)Nc2cc(Cl)ccc2N1` (stereo not drawn) had a TGI of over 100 µM.

The test system of another experiment is LXFL 529 NSCLC. The experiment in a line: NCI tumour cell line growth inhibition, 48 h.
Molecule `CCOC(=O)C1=C(NC)OCC1=O` gave a TGI of over 100 µM.

In the case of `CCOC(=O)C1(C)CCC(C(C(=O)O)C(=O)O)CC1=O` (stereo not drawn), the TGI was over 100 µM.

Take `COC(=O)C1=C(C(=O)OC)C2(c3ccccc3)OC1(c1ccccc1)c1cc3ccccc3cc12`: the TGI came to 2.63 µM.

With `CC1NOC(=O)C1N=Nc1ccc(Cl)cc1Cl` (stereo not drawn), the TGI stood at 45.3 µM.

On to `CCOC(=O)/C(=C/c1ccccn1)C(=O)c1ccccc1`, for which the TGI was 23.5 µM.

`O=C(c1ccccc1)[C@H]1Nc2ccc(Cl)cc2[C@H]2CCC[C@@H]12` came in with a TGI of 64.9 µM.

`COc1ccc2nc(NC(=O)C(=O)CC(=O)c3ccc([N+](=O)[O-])cc3)sc2c1` displayed a TGI of over 100 µM.

`CC(=O)Nc1ccc(C2CC(c3ccc([N+](=O)[O-])cc3)=Nc3ccccc3S2=O)cc1` (stereo not drawn) displayed a TGI of 34.6 µM.

The molecule `COc1cc(/C=C2\NC(=O)C(Cc3cc(OC)c(OC)c(C)c3OC)N(C(C)=O)C2=O)c(OC)c(C)c1OC` (stereo not drawn) yielded a TGI of over 100 µM.

Regarding `O=NN(CCCl)C(=O)NC1CCC(CC(=O)O)CC1` (stereo not drawn), the TGI is over 100 µM.

In the case of `C[C@H](C(=O)O)C(=O)NC(=O)N(Cc1ccccc1)N=O`, the TGI was over 100 µM.

For `NNC(=O)C(=O)NN=C(C(Cl)(Cl)CO)C(Cl)(Cl)CO`, the TGI is over 100 µM.

Consider `O=C1N[C@@H]2CCCC[C@@H]2C12CCCCC2`, for which the TGI was over 100 µM.

Molecule `COc1ccc2ccccc2c1C1=NC(C)(C)CO1` came in with a TGI of over 100 µM.

In the case of `NC1=NC(Cn2nc(-c3ccccc3)c3ccccc3c2=O)=NNC(=O)N1`, the TGI was over 100 µM.

With `O=C(CCCC(=O)Nc1ccc(Cl)cc1Cl)CC(=O)c1ccc2ccccc2c1`, the TGI was over 100 µM.

`O=C(NCCc1ccccc1)C1C(=O)C(=O)N(CCc2ccccc2)C1=O` (stereo not drawn) returned a TGI of over 100 µM.

Molecule `OC(c1ccccc1Br)(c1ccccc1Br)C(F)(F)F` showed a TGI of over 100 µM.

For the molecule `NC(N)=NCCCC(NCc1c2ccccc2nc2ccccc12)C(=O)O` (stereo not drawn), the TGI is over 100 µM.

`CC(=O)OC1COC(N2CCc3cc([N+](=O)[O-])ccc32)C(OC(C)=O)C1OC(C)=O` (stereo not drawn) returned a TGI of over 100 µM.

For the molecule `CCOC(=O)C1S(=O)(=O)OCCOS1(=O)=O`, the TGI is over 100 µM.

In turn, `CC12OC(=O)C(C#N)C1(C)C1C(=O)CCCC12` (stereo not drawn) showed a TGI of over 100 µM.

Regarding `Cc1nc2ccccc2c(=O)n1/N=C(\N=Nc1ccccc1Cl)c1ccccc1Cl`, the TGI is over 100 µM.

On to `CCc1cccc(CC)c1NC(=O)/C(Cl)=C(/Cl)C(=O)O`, for which the TGI was determined as 20.9 µM.

Regarding `O=[N+]([O-])c1ccc(-c2ccc(C3=Nn4c(CNc5ccccc5Cl)nnc4SC3)o2)cc1`, the TGI is over 100 µM.

In the case of `Nc1nc(=S)c2c(ncn2CCO)[nH]1`, the TGI was over 100 µM.

Turning to `CC(C)Cc1ccc(C(C)/C=C2\CCC(CN(C)C)C2=O)cc1` (stereo not drawn), the TGI was found to be 22.6 µM.

In the case of `COc1cc(/C=C/c2csnn2)cc(OC)c1OC`, the TGI is over 100 µM.

On to `Cn1c(=O)c2nc3sc4c(n3c2n(C)c1=O)C(=O)c1ccccc1C4=O`, for which the TGI was over 100 µM.

Turning to `N#CC1CC(c2ccccc2)Nc2cc(Cl)ccc2N1` (stereo not drawn), the TGI is over 100 µM.

Another experiment has as its system M19-MEL melanoma. In words: NCI tumour cell line growth inhibition, 48 h.
For `CCOC(=O)C1=C(NC)OCC1=O`, the TGI was over 100 µM.

Regarding `CCOC(=O)C1(C)CCC(C(C(=O)O)C(=O)O)CC1=O` (stereo not drawn), the TGI is over 100 µM.

In turn, `COC(=O)C1=C(C(=O)OC)C2(c3ccccc3)OC1(c1ccccc1)c1cc3ccccc3cc12` returned a TGI of 4.22 µM.

`CC1NOC(=O)C1N=Nc1ccc(Cl)cc1Cl` (stereo not drawn) had a TGI of 64.3 µM.

In the case of `O=C1NC(=O)C2C(=O)NC(=O)C1C2Cc1ccco1` (stereo not drawn), the TGI is over 100 µM.

`CCOC(=O)/C(=C/c1ccccn1)C(=O)c1ccccc1` registered a TGI of 31.3 µM.
